Reference: ChEMBL document CHEMBL6078651, “Tyrosinase Inhibitory Properties of Compounds Isolated from Artocarpus integer Roots” (J Nat Prod, 2024)
The source made the active and inactive calls. The calls are words filed in the database; no cut-off is given here.

Biological target: Mushroom tyrosinase (Agaricus bisporus) (UniProt O42713+Q00024+C7FF04+C7FF05)
Assay: Inhibition of mushroom tyrosinase using L-DOPA as substrate at 50 uM preincubated for 10 mins followed by substrate addition measured after 20 mins by spectrophotometry
Format: protein assay
Settings: time 30.0 min

| SMILES | inhibition |
| --- | --- |
| COc1cc(O)c2c(=O)c3c(oc2c1)-c1cc(O)c(OC)cc1OC3C=C(C)C (stereo not given) | inactive |
| C=C(C)C1Cc2c(oc3cc(OC)cc(O)c3c2=O)-c2c(O)cc(OC)c(O)c21 (stereo not given) | inactive |
| CC(C)=CCC/C(C)=C/Cc1c2c(c(O)c3c(=O)c(CC=C(C)C)c(-c4cc(C)c(O)cc4O)oc13)C=CC(C)(C)O2 | inactive |
| CC(C)=CCc1c2c(c(O)c3c(=O)c4c(oc13)-c1c(O)cc(O)c3c1C(C4)C(C)(C)O3)C=CC(C)(C)O2 (stereo not given) | inactive |
| C=C(C)c1cc2c(=O)c3c(O)c(CC=C(C)C)c(O)c(C/C=C(\C)CCC=C(C)C)c3oc2c2c1[C@](O)(C(=O)OC)CC2=O | inactive |
| COc1cc2c(c3oc(-c4cc(O)cc(O)c4)cc13)C=CC(C)(C)O2 | inactive |
| C=C(C)c1cc2c(=O)c3c(O)c4c(c(C/C=C(\C)CCC=C(C)C)c3oc2c2c1[C@](O)(C(=O)OC)CC2=O)OC(C)(C)C=C4 | inactive |
| CC(C)=CCC/C(C)=C/Cc1c2c(c(O)c3c(=O)c4c(oc13)-c1c(O)cc(O)c3c1C(C4)C(C)(C)O3)C=CC(C)(C)O2 (stereo not given) | inactive |
| C=CC(C)(C)/C=C/c1ccc(O)cc1 | inactive |
| C=C(C)c1cc2c(=O)c3c(O)c4c(c(CC=C(C)C)c3oc2c2c1[C@](O)(C(=O)OC)CC2=O)OC(C)(C)C=C4 | inactive |

Next, values leading:

| inhibition | SMILES |
| --- | --- |
| inactive | CC(C)c1cc2c(O)cc(-c3cc4ccc(O)cc4o3)cc2o1 |
| inactive | COc1cc(O)c2c(c1)O[C@H](c1cc(OC)c(OC)cc1OC)CC2=O |
| inactive | COc1cc2c(cc1O)-c1oc3cc(O)cc(O)c3c(=O)c1C(C=C(C)C)O2 (stereo not given) |
| inactive | CC(C)=CC1Oc2cc(O)ccc2-c2oc3cc(O)cc(O)c3c(=O)c21 (stereo not given) |
| inactive | COc1cc2c(c3c1[C@H](C(C)(C)O)CC[C@@H]3c1ccc(O)cc1O)C=CC(C)(C)O2 |
